Measurements published in patent US20090203693A1, “THERAPEUTIC AGENT FOR LIVER FIBROSIS” (Eisai R & D Management Co., Ltd., priority 2006, published 2009).

These compounds were tested against T1, His6-DDR2 (cytoplasmic domain of human DDR2) (Homo sapiens, UniProt Q16832) (assay: Determination of DDR2 kinase inhibitory activity (His6-DDR2 tyrosine autophosphorylation, HTRF)). Conditions: cell free, ATP, room temperature 10 minutes, HTRF detection; read-out: IC50 (concentration of the test substance required for inhibiting His6-DDR2 kinase activity by 50%).
T1 construct: cytoplasmic domain of DDR2 having 6 histidines fused to the N-terminus thereof; made in house; host or cells: Sf9 insect cells (baculovirus, pFastBac-HT)
T1 sequence (Q16832 422-855 limits assumed): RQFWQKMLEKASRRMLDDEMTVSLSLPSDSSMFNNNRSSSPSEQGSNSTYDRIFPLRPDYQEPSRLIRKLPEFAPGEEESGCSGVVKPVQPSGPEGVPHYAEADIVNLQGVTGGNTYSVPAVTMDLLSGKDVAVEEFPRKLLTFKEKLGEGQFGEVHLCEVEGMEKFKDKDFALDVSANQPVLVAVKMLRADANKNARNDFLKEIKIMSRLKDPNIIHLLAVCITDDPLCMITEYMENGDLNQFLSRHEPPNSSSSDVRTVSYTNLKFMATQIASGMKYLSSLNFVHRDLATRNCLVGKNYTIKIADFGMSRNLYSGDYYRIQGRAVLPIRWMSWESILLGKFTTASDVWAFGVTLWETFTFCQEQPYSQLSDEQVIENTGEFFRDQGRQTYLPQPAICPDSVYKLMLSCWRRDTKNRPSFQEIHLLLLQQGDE
Assay type: biochemical
From the text: A DNA fragment of cytoplasmic domain of human DDR2 (SEQ ID NO: 1) was isolated by PCR method (Expand High Fidelity (purchased from Roche)) according to a conventional technique using human brain cDNA library (purchased from Clontech) as a template and SEQ ID NO:3: 5′-[…]-3′ and SEQ ID NO:4: 5′-[…]-3′ (purchased from JBioS) as primers. This DNA fragment was inserted into a baculovirus transplacement vector (pFastBac™-HT (purchased from Invitrogen)) to obtain a recombinant construct. Insect cells (Spodoptera frugiperda 9 (Sf9 cells)) were transfected with this recombinant construct, thereby preparing a DDR2 recombinant baculovirus solution. For preparation of a recombinant baculovirus, we referred to a standard textbook (Bac-to-Bac Baculovirus Expression System (Invitrogen)).
The above-described DDR2 recombinant Baculovirus solution (0.07 mL) was added to Sf9 cells (7×10^7 cells) suspended in 2.5% FBS-containing SF-900II medium (purchased from Invitrogen) and shake-cultured at 27° C. for 72 hours. Then, this DDR2 recombinant Baculovirus-infected cells were subjected to centrifugation at 1,600 rpm at 4° C. for 6 minutes and the supernatant was removed. The precipitated infected cells were suspended in 10 mL of ice-cold PBS and centrifuged at 1,600 rpm at 4° C. for 6 minutes to remove the supernatant. The precipitated infected cells were suspended in 5 mL of ice-cold lysis buffer (50 mM Tris-HCl (pH 8.5), 5 mM 2-mercaptoethanol, 100 mM KCl, 1 mM PMSA, 1% (v/v) NP40), and centrifuged at 10,000 rpm at 4° C. for 10 minutes to obtain the supernatant.
This supernatant was added to a Ni-NTA agarose column (1.5 mL (purchased from Qiagen)) equilibrated with 5 mL of buffer A (20 mM Tris-HCl (pH 8.5), 5 mM 2-mercaptoethanol, 500 mM KCl, 20 mM imidazole, 10% (v/v) glycerol). This column was sequentially washed with 10 mL of buffer A, 2 mL of buffer B (20 mM Tris-HCl (pH8.5), 5 mM 2-mercaptoethanol, 1 M KCl, 10% (v/v) glycerol) and 2 mL of buffer A. Subsequently, 4 mL of buffer C (20 mM Tris-HCl (pH 8.5), 5 mM 2-mercaptoethanol, 100 mM KCl, 100 mM imidazole, 10% (v/v) glycerol) was added to obtain an eluate. This eluate was placed in a dialysis membrane (purchased from Spectrum Medical Industries) and dialyzed against 1 L of dialysis buffer (20 mM Tris-HCl, 10% (v/v) glycerol, 1 mM dithiothreitol, 0.1 mM Na3VO4, 0.1 mM EGTA) at 4° C. overnight. After dialysis, a portion of the eluate was subjected to SDS-PAGE and an amount of the recombinant protein detected at a molecular weight of about 40 kDa (His6-DDR2 (cytoplasmic domain of DDR2 having 6 histidines fused to the N-terminus thereof)) by Coomassie brilliant blue staining was quantitated using BSA as a standard substance.
To each well of a 96-well black half plate (purchased from Corning, Product No: 3694), 20 ng of His6-DDR2, 35 μL of 25 mM Hepes solution (pH 7.4) containing 14 mM MgCl2 and a test substance dissolved in dimethylsulfoxide (at 100-fold dilution with 1% BSA; 5 μL) were added to a total amount of 40 μL. To this, […] of 50 μM ATP (purchased with Sigma) diluted with 25 mM Hepes solution was added and incubated at room temperature for 10 minutes. Thereafter, 10 μL of 50 mM EDTA (pH 8.0) (purchased from Wako Pure Chemical Industries) was added to terminate the kinase reaction.
Tyrosine-phosphorylated DDR2 was detected using homogeneous time resolved fluorescence (HTRF) technique (Analytical Biochemistry, 269, 94-104, 1999). Specifically, to each well of the reaction solutions mentioned above, 20 μL of 25 mM Hepes solution containing 1 M KF, 4.75 ng of europium cryptate-labeled anti-phosphorylated tyrosine antibody (Eu(K)-PT66) and 100 ng of XL665-labeled anti-His antibody (XL665-Anti-His) was added. This reaction solution was incubated at room temperature overnight. Thereafter, fluorescence intensities of each well at 665 nm and 620 nm were measured under irradiation at an excitation wavelength of 337 nm using Discovery HTRF microplate analyzer (from Packard). […]
Compound `COc1cc2nccc(Oc3ccc(NC(=O)NC4CC4)c(Cl)c3)c2cc1C(N)=O` [Compound 11, 4-(3-chloro-4-(cyclopropylaminocarbonyl)aminophenoxy)-7-methoxy-6-quinolinecarboxamide] has an IC50 of 0.91 nM. `COc1cc2nccc(Oc3ccc(NC(=O)Nc4cccc(SC)c4)cc3)c2cc1OC` [Compound 5, N-(3-methylthiophenyl)-N′-(4-((6,7-dimethoxy-4-quinolinyl)oxy)phenyl)urea] showed an IC50 of 1.2 nM. `COc1cc2nccc(Oc3ccc(NC(=O)Nc4cccc(S(C)(=O)=O)c4)cc3)c2cc1OC` [Compound 6, N-(3-methylsulfonylphenyl)-N′-(4-((6,7-dimethoxy-4-quinolinyl)oxy)phenyl)urea] gave an IC50 of 1.1 nM. `COc1cc2nccc(Oc3ccc4c(ccn4C(=O)NC4CC4)c3)c2cc1C(N)=O` [Compound 12, 6-carbamoyl-4-(1-cyclopropylcarbamoyl-1H-indole-5-yloxy)-7-methoxyquinoline] gave an IC50 of 0.15 nM. `COCCNC(=O)c1cc2c(Oc3ccc(NC(=O)NC4CC4)c(Cl)c3)ccnc2cc1OC` [Compound 13, N6-(2-methoxyethyl)-4-(3-chloro-4-(((cyclopropylamino)carbonyl)amino)phenoxy)-7-methoxy-6-quinolinecarboxamide] was tested, and the IC50 was 18 nM. `CNC(=O)Nc1cc(Oc2ccnc3cc(OC)c(C(=O)NC)cc23)ccc1Cl` [Compound 16, N6-methyl-4-(4-chloro-3-(((methylamino)carbonyl)amino)phenoxy)-7-methoxy-6-quinolinecarboxamide] showed an IC50 of 1890 nM. With `CN1CCC(C(=O)Nc2cc(Oc3ccc4c(ccn4C(=O)Nc4ccccc4)c3)ccn2)CC1` [Compound 14, N1-phenyl-5-((2-(((1-methyl-4-piperidyl)carbonyl)amino)-4-pyridyl)oxy)-1H-1-indolecarboxamide] the IC50 was 0.24 nM. With `CNC(=O)c1cc2c(Oc3ccc(NC(=O)NC4CC4)c(Cl)c3)ccnc2cc1OCCOC` [Compound 18, N6-methyl-4-(3-chloro-4-(((cyclopropylamino)carbonyl)amino)phenoxy)-7-(2-methoxyethoxy)-6-quinolinecarboxamide] the IC50 was 0.4 nM. `CCNC(=O)Nc1ccc(Oc2ccnc3cc(OC)c(C(=O)NCC)cc23)cc1Cl` [Compound 20, N6-ethyl-4-(3-chloro-4-(((ethylamino)carbonyl)amino)phenoxy)-7-methoxy-6-quinolinecarboxamide] gave an IC50 of 428 nM. In the case of `COCCOc1cc2nccc(Oc3ccc(NC(=O)Nc4cccc(S(C)(=O)=O)c4)c(F)c3)c2cc1C#N` [Compound 7, N-(4-(6-cyano-7-(2-methoxyethoxy)-4-quinolyl)oxy-2-fluorophenyl)-N′-(3-methylsulfonylphenyl)urea], the IC50 is reported as 0.63 nM. Work on `CCCCNC(=O)Nc1ccc(Oc2ccnc3cc(OC)c(OC)cc23)cc1` [Compound 2, N-n-butyl-N′-(4-((6,7-dimethoxy-4-quinolinyl)oxy)phenyl)urea] yielded an IC50 of 7.2 nM. `N#Cc1cc2c(Oc3ccc(Cl)c(NC(=O)NC4CC4)c3)ccnc2cc1OC[C@H](O)CN1CCCC1` [Compound 17] showed an IC50 of 20.8 nM. `COc1cc2nccc(Oc3ccc(NC(=O)Nc4ccc(F)cc4)c(F)c3)c2cc1C(N)=O` [Compound 8, 4-(4-((4-fluoroanilino)carbonyl)amino-3-fluorophenoxy)-7-methoxy-6-quinoline carboxamide] was tested, and the IC50 was 1.2 nM. `COc1cc2nccc(Oc3ccc4c(ccn4C(=O)Nc4ccc(F)cc4)c3)c2cc1OC` [Compound 9, 6,7-dimethoxy-4-(5-(1-(4-fluorophenylcarbamoyl)-indolyl)oxy)quinoline] showed an IC50 of 1.9 nM. `COc1ccc(NC(=O)Nc2ccc(Oc3ccnc4cc(OC)c(OC)cc34)cc2)cc1` [Compound 1, N-(4-methoxyphenyl)-N′-(4-((6,7-dimethoxy-4-quinolinyl)oxy)phenyl)urea] gave an IC50 of 0.06 nM. `COc1cc2nccc(Oc3ccc(NC(=O)Nc4cccc(C(N)=O)c4)cc3)c2cc1OC` [Compound 4, N-(3-carbamoylphenyl)-N′-(4-((6,7-dimethoxy-4-quinolinyl)oxy)phenyl)urea] gave an IC50 of 1.3 nM. For `CCNC(=O)Nc1ccc(Oc2ccnc3cc(OC)c(C(=O)NC)cc23)cc1Cl` [Compound 19, N6-methyl-4-(3-chloro-4-(((ethylamino)carbonyl)amino)phenoxy)-7-methoxy-6-quinolinecarboxamide], the IC50 was 178 nM. Compound `N#Cc1cc2c(Oc3ccc(Cl)c(NC(=O)NC4CC4)c3)ccnc2cc1OCCN1CCCC1` [Compound 15, N-(2-chloro-5-((6-cyano-7-(2-(1-pyrrolidino)ethoxy)-quinolyl)oxy)phenyl)-N′-cyclopropylurea] has an IC50 of 822 nM. `CCNC(=O)Nc1ccc(Oc2ccnc3cc(OC[C@H](O)CN4CCCC4)c(C(=O)NC)cc23)cc1Cl` [Compound 22, N6-methyl-4-(3-chloro-4-(((ethylamino)carbonyl)amino)phenoxy)-7-((2R)-2-hydroxy-3-(1-pyrrolidino)propoxy)-6-quinolinecarboxamide] was tested, and the IC50 was 0.4 nM. Compound `CCNC(=O)Nc1ccc(Oc2ccnc3cc(OC[C@H](O)CN(CC)CC)c(C(=O)NC)cc23)cc1Cl` [Compound 21] has an IC50 of 28 nM. `CCNC(=O)Nc1ccc(Oc2ccnc3cc(OCC4CCN(C)CC4)c(C(=O)NC)cc23)cc1Cl` [Compound 23, N6-methyl-4-(3-chloro-4-(((ethylamino)carbonyl)amino)phenoxy)-7-((1-methyl-4-piperidyl)methoxy)-6-quinolinecarboxamide] showed an IC50 of 18 nM. `COc1cc2nccc(Oc3ccc(NC(=O)NCCCSC)c(F)c3)c2cc1C(N)=O` [Compound 10, 4-(3-fluoro-4-((3-methylthiopropylamino)carbonyl)aminophenoxy)-7-methoxy-6-quinolinecarboxamide] showed an IC50 of 1.5 nM.
